Data taken from patent US9616064B2, “Rho kinase inhibitors and methods of use” (H. LEE MOFFITT CANCER CENTER AND RESEARCH INSTITUTE, INC., priority 2011, dated 2017).
Counter-ions that a name gives are not always drawn. Like-named read-outs stand apart in the source and are kept apart here.

How the values were obtained:
ROCK1 = ROCK1 (Homo sapiens (Human), UniProt Q13464); assay: Z-lyte FRET assay to measure kinase inhibition, ROCK1; assay type: biochemical; details: for inhibition at 50 µM: read-out: ROCK1 % inhibition @ 50 μM, 50 μM compound; for IC50: read-out: ROCK1 IC50
ROCK2 = ROCK2 (Homo sapiens (Human), UniProt O75116); assay: Z-lyte FRET assay to measure kinase inhibition, ROCK2; assay type: biochemical
Chain of ROCK2 (O75116 whole entry, species assumed): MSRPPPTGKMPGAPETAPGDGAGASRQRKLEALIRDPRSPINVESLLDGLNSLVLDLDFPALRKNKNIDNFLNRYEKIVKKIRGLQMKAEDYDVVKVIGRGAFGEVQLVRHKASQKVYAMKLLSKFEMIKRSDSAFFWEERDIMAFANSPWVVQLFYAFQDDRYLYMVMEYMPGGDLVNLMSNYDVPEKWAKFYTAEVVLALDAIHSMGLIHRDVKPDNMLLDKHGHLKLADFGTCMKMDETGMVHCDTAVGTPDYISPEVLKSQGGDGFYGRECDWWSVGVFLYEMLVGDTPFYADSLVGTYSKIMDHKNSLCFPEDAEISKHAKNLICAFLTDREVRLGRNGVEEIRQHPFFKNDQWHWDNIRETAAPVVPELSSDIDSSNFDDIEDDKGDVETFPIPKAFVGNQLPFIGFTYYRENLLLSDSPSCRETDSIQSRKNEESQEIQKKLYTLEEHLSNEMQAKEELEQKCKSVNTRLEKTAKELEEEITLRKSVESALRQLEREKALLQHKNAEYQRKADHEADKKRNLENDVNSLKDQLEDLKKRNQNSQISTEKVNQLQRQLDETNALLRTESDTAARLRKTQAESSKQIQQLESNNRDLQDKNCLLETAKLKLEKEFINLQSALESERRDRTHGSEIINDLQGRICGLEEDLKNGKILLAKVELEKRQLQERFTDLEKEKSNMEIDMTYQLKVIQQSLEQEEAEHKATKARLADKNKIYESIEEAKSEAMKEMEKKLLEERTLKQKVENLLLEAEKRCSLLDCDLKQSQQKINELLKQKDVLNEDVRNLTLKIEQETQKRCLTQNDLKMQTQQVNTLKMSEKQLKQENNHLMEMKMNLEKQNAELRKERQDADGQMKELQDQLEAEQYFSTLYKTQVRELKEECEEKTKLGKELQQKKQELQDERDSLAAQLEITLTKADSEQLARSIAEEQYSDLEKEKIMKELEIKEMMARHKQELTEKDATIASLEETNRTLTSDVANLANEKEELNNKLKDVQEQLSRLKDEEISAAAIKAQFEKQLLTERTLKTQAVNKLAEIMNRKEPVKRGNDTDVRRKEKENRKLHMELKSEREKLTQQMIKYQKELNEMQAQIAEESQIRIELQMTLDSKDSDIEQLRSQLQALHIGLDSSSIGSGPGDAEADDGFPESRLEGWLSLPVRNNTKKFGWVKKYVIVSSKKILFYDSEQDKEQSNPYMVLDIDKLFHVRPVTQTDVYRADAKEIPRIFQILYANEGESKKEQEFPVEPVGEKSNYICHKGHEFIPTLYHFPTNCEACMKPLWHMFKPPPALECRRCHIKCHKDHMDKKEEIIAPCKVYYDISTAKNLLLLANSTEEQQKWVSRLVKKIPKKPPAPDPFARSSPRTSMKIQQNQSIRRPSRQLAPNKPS

Chain of ROCK1 (Q13464 whole entry): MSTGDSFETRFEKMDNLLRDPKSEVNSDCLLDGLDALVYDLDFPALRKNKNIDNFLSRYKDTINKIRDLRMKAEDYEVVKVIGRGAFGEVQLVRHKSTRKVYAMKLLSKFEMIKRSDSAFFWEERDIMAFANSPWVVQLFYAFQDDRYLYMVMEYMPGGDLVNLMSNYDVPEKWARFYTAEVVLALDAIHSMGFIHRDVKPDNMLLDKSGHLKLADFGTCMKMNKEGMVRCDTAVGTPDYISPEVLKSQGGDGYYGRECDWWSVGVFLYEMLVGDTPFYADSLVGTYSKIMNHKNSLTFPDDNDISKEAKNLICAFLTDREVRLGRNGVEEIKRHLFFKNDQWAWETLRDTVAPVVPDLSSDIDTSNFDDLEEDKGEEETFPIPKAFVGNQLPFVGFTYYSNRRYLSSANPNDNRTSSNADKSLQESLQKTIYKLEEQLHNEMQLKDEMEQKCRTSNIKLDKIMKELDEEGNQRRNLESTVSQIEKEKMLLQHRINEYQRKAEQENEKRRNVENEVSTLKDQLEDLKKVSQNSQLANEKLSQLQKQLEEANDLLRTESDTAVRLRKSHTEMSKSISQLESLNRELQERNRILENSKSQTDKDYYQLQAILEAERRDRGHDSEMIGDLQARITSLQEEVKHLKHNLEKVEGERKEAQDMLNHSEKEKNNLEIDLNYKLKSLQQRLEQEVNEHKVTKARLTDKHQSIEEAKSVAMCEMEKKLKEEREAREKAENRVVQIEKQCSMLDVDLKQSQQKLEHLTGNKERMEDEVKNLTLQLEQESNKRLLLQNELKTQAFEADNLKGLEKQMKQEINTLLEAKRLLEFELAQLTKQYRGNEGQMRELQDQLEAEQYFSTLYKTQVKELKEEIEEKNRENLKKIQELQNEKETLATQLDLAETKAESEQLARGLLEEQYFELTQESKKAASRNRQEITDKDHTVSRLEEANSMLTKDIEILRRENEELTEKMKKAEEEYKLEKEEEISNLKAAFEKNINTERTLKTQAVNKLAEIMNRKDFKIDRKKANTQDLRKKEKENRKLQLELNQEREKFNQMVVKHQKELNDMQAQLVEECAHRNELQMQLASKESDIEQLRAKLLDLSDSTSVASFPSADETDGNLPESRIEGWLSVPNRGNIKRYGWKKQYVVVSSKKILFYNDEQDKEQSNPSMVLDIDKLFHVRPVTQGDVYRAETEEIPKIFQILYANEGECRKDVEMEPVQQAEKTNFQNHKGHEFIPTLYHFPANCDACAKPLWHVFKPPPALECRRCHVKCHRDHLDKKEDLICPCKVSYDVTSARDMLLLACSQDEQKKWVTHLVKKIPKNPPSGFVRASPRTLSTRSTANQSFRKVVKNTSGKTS

| inhibition at 50 µM (ROCK1) [%] | IC50 (ROCK1) [µM] | IC50 (ROCK2) [µM] | IC50 (ROCK1; hydrochloride) [µM] | IC50 (ROCK2; hydrochloride) [µM] | ROCK1 % inhibition @ 50 μM (ROCK1; 50 μM compound) [%] | SMILES |
| --- | --- | --- | --- | --- | --- | --- |
| 90 ± 2 | 6.1 ± 0.6 | 6.1 ± 1.1 | – | – | – | Nc1nccc(Nc2cccc(S(N)(=O)=O)c2)n1 |
| 82 ± 2 | 13.3 ± 1.7 | 11.5 ± 1.2 | – | – | – | NC(=O)c1ccc(Nc2ccnc(N)n2)cc1 |
| 54 ± 4 | 38.9 ± 0.9 | 33.3 ± 2.8 | – | – | – | NC(=O)c1cccc(Nc2ccnc(N)n2)c1 |
| 90 ± 1 | 6.7 ± 1.3 | 7.3 ± 2 | – | – | – | CS(=O)(=O)c1cccc(Nc2ccnc(N)n2)c1 |
| 85 ± 4 | 6.6 ± 0.5 | 3.4 ± 0.3 | – | – | – | Nc1nccc(N2CCc3ccccc32)n1 |
| 76 ± 2 | 21 ± 8.8 | 17.1 ± 2.8 | – | – | – | CSc1ccc(Nc2ccnc(N)n2)cc1 |
| 63 ± 5 | 37 ± 8.8 | 39.6 ± 6.2 | – | – | – | COC(=O)c1cccc(Nc2ccnc(N)n2)c1 |
| 77 ± 3 | 20.5 ± 8 | 13.9 ± 1.7 | – | – | – | COC(=O)c1ccc(Nc2ccnc(N)n2)cc1 |
| 69 ± 1 | 19.8 ± 4.3 | 35.3 ± 5.1 | – | – | – | Nc1nccc(N2CCCc3ccccc32)n1 |
| 97 ± 1 | 1.7 ± 0.2 | 1.9 ± 0.4 | – | – | – | CC1Cc2ccccc2N1c1ccnc(N)n1 (centres unmarked) |
| 89 ± 2 | 3.9 ± 0.3 | 3.7 ± 0.8 | – | – | – | Nc1nccc(Nc2ccc([N+](=O)[O-])cc2)n1 |
| 91 ± 2 | 4.86 ± 0.6 | 7.82 ± 2.3 | – | – | – | Nc1nccc(Nc2cccc([N+](=O)[O-])c2)n1 |
| 63 ± 5 | 30.2 ± 2.5 | 42.5 ± 6.7 | – | – | – | COc1cccc(Nc2ccnc(N)n2)c1 |
| 64 ± 7 | 30 ± 3.2 | 23.4 ± 5.5 | – | – | – | Nc1nccc(Nc2ccc(OC(F)F)cc2)n1 |
| 73 ± 3 | 1.5 ± 0.2 | 1.2 ± 0.2 | – | – | – | Nc1nccc(N2CCc3cc(Cl)ccc32)n1 |
| 50 ± 1 | 38.7 ± 1.6 | 37.4 ± 4 | – | – | – | Nc1nccc(-n2cnc3ccccc32)n1 |
| 88 ± 4 | 4.8 ± 0.3 | 4 ± 0.3 | – | – | – | Nc1nccc(-n2ccc3ccccc32)n1 |
| 51 ± 1 | 2.2 ± 0.3 | 1.8 ± 0.3 | – | – | – | Nc1nccc(N2CCc3ccc([N+](=O)[O-])cc32)n1 |
| 93 ± 7 | 0.15 ± 0.02 | 0.04 ± 0.03 | – | – | – | COc1cccc(CNC(=O)c2cccc3c2ccn3-c2ccnc(N)n2)c1 |
| 86 ± 4 | 6.8 ± 3 | 0.72 ± 0.13 | – | – | – | Nc1nccc(-n2ccc3c(C(=O)NCc4cccc(Cl)c4)cccc32)n1 |
| 72 ± 10 | 2.7 ± 1.78 | 0.26 ± 0.09 | – | – | – | Nc1nccc(-n2ccc3c(C(=O)NCc4cccc(F)c4)cccc32)n1 |
| 70 ± 3 | 10.5 ± 1 | 1.1 ± 0.49 | – | – | – | Nc1nccc(-n2ccc3c(C(=O)NCc4ccc(F)cc4)cccc32)n1 |
| 69 ± 3 | 6 ± 2 | 1.8 ± 0.68 | – | – | – | COc1ccccc1CNC(=O)c1cccc2c1ccn2-c1ccnc(N)n1 |
| 102.2 ± 0.2 | 3.43 ± 0.44 | 1.2 ± 0.32 | – | – | – | C[C@H](NC(=O)c1cccc2c1ccn2-c1ccnc(N)n1)c1ccccc1 |
| 88.7 ± 5.96 | 5.67 ± 0.32 | 0.92 ± 0.48 | – | – | – | Nc1nccc(-n2ccc3c(C(=O)NCc4ccccc4F)cccc32)n1 |
| 92.8 ± 3.64 | 1.62 ± 0.86 | 0.25 ± 0.02 | – | – | – | COc1cccc(CNC(=O)c2cccc3c2CCN3c2ccnc(N)n2)c1 |
| – | – | – | 38 | 25 | – | Nc1nccc(Nc2ccc(S(N)(=O)=O)cc2)n1 [1aa, 4-(2-Aminopyrimidin-4-ylamino)benzenesulfonamide hydrochloride] |
| 60 ± 3 | 38.5 ± 3.4 | 25.5 ± 5.8 | – | – | – | Nc1nccc(Nc2ccc(S(N)(=O)=O)cc2)n1 [drawing 83] |
| 85 ± 6 | 1.7 ± 0.5 | 0.21 ± 0.15 | – | – | – | CC(NC(=O)c1cccc2c1ccn2-c1ccnc(N)n1)c1ccccc1 (centres unmarked) [drawing 177] |
| – | 0.12 ± 0.02 | 0.06 ± 0.02 | – | – | 105 ± 1 | CC(NC(=O)c1cccc2c1ccn2-c1ccnc(N)n1)c1ccccc1 (centres unmarked) [drawing 178] |
